The results in this text go back to ChEMBL document CHEMBL1201862, “PubChem BioAssay data set” (2004).

Common to all, as to type: functional
In one experiment the target is Prothrombin (Bos taurus, UniProt P00735). The experiment in a line: thrombin protease inhibitors – biochemical, fluorescence polarization, uHTS hits, dose response (AID 602369). (In general: Fluorescence polarisation rises when a labelled molecule tumbles more slowly, as on binding a larger partner.)
For experiment [1], the target named is 26S proteasome non-ATPase regulatory subunit 14 (Homo sapiens, UniProt O00487). Description: inhibition of proteasome subunit RPN11 – biochemical, fluorescence polarization, uHTS hits, confirmation (AID 602368).
Chain of 26S proteasome non-ATPase regulatory subunit 14 (O00487 whole entry): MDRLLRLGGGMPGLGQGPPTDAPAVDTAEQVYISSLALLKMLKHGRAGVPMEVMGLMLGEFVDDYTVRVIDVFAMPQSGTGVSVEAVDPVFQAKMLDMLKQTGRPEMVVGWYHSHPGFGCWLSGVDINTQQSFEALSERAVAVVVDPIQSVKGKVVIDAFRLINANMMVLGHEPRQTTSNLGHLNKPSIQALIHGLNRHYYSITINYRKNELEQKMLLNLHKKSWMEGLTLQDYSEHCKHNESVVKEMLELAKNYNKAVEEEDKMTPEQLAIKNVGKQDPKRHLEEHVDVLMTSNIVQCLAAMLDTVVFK
Experiment [2] deals with 72 kDa type IV collagenase (Homo sapiens, UniProt P08253). Description: Dose Response validation of uHTS RPN11 inhibitor hits using a MMP-2 Fluorescence assay.
Chain of 72 kDa type IV collagenase (P08253 whole entry): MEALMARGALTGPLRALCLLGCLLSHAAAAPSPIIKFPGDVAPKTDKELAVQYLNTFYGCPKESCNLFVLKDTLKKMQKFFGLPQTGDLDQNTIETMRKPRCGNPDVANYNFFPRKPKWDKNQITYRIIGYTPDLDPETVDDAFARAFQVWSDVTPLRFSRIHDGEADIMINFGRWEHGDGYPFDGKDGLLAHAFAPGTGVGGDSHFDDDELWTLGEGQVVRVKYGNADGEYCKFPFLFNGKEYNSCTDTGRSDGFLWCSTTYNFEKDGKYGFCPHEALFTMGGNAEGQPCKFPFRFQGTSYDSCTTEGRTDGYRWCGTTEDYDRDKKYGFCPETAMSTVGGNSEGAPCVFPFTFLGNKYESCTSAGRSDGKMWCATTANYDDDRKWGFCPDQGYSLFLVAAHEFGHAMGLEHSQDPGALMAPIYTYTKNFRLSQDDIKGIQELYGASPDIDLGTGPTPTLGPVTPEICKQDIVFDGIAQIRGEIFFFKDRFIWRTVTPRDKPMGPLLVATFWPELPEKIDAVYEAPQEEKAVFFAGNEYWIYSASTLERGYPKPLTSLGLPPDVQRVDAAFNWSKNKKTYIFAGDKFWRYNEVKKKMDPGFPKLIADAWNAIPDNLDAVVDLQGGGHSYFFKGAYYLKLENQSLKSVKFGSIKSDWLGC
The target of experiment [3] is T1, Small ubiquitin-related modifier 1 (Homo sapiens, UniProt P63165). Description: SUMO1 protein-protein binding blockers, potency – biochemical, FRET, dose response (AID 624383). As to conditions: read-out: IC50_Mean.
T1 sequence (P63165 whole entry): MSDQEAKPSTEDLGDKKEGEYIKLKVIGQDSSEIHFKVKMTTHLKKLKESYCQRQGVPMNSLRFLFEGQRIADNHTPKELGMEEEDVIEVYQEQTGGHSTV
Experiment [4] addresses T1, Small ubiquitin-related modifier 1. The experiment in a line: SUMO1 protein interaction blockers, potency – biochemical, fluorescence polarization, uHTS hits, dose response (AID 624382). The conditions noted are these: read-out: IC50_Mean.
For experiment [5], the target named is Tyrosine-protein phosphatase non-receptor type 5 (Homo sapiens, UniProt P54829). The experiment in a line: PTPN5 enzyme inhibition – biochemical, fluorescence intensity, uHTS hits, confirmation (AID 602372). The conditions noted are these: read-out: IC50_Mean.
Chain of Tyrosine-protein phosphatase non-receptor type 5 (P54829 whole entry): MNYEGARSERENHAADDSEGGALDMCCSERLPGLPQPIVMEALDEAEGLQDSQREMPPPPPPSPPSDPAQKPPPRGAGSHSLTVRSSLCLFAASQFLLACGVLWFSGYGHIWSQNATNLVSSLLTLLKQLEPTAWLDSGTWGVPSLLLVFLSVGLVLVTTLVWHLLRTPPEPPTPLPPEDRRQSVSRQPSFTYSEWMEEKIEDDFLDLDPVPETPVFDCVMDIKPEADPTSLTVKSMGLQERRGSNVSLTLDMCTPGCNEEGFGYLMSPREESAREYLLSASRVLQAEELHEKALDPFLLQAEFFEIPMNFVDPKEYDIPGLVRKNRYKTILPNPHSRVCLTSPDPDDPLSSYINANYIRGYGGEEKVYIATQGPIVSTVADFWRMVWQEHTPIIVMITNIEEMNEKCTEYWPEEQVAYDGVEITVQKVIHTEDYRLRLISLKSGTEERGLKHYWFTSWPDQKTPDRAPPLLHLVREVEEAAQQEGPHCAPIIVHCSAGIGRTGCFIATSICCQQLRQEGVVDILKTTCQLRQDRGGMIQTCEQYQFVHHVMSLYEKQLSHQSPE
Experiment [6] addresses Tyrosine-protein phosphatase non-receptor type 11 (Homo sapiens, UniProt Q06124). Description: PTPN11 enzyme inhibitors – biochemical, selectivity assay for STEP inhibitor project, dose response (AID 602367). The conditions noted are these: read-out: IC50_Mean.
Experiment [7] concerns the target Dual specificity protein phosphatase 3 (Homo sapiens, UniProt P51452). Description: VHR phosphatase inhibition, dose response, selectivity assay for STEP inhibitor project, biochemical (AID 602374). The conditions noted are these: read-out: IC50_Mean.
For experiment [8], the target named is T2, Carboxy-terminal domain RNA polymerase II polypeptide A small phosphatase 1 (Homo sapiens, UniProt Q9GZU7).
T2 sequence (Q9GZU7 whole entry): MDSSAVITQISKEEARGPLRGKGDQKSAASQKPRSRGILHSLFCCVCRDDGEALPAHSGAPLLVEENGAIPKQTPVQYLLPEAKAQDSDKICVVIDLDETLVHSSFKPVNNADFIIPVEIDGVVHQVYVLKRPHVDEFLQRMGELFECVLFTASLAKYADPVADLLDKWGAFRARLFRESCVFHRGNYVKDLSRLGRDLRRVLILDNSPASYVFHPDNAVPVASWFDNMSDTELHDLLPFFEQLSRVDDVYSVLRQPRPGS
Description: CTDSP1 inhibitors, concentration-response, biochemical, absorbance readout, ultra-high-throughput screen actives (AID 540297).

Experiment [9] addresses T3, High affinity choline transporter 1 (Homo sapiens, UniProt Q9GZV3).
T3 sequence (Q9GZV3 whole entry): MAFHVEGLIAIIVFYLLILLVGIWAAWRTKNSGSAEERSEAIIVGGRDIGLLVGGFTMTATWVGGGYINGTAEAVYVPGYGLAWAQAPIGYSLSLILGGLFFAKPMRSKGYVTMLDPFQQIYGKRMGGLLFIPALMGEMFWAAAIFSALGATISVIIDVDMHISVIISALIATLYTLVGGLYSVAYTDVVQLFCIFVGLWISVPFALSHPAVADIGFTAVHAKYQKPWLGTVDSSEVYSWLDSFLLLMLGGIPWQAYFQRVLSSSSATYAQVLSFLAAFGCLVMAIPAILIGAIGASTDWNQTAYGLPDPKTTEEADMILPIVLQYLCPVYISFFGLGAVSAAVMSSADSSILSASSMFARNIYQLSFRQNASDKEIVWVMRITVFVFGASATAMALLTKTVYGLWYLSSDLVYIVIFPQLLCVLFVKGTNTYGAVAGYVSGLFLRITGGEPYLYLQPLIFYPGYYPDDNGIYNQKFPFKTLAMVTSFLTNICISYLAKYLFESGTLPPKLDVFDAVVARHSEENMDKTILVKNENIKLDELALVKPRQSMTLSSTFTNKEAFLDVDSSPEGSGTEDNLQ
Description: human choline transporter blockers, potency – cell-based, 5-point CRC, membrane potential dye, dose response (AID 504840).

The target in experiment [10] is T3, High affinity choline transporter 1. The experiment in a line: human choline transporter blockers, potency – cell-based, 10-point CRC, membrane potential dye, dose response (AID 588401).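 Further: membrane potential dye fluorescence of choline-evoked depolarization via CHT.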
Experiment [11] deals with T4, Orexin/Hypocretin receptor type 1 (Homo sapiens, UniProt O43613).
T4 sequence (O43613 whole entry): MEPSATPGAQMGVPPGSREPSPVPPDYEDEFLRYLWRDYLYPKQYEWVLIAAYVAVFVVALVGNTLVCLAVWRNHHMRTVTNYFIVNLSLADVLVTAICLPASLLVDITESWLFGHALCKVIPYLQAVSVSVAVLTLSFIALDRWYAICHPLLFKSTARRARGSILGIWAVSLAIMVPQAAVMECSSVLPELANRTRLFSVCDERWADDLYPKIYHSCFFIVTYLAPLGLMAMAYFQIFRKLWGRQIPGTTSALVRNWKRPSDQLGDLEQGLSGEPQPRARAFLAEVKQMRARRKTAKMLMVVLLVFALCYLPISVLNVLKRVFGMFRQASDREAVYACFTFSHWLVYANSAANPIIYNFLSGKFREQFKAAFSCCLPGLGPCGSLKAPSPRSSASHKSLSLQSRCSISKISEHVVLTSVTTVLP
The experiment in a line: Homogeneous Time Resolved Fluorescence (HTRF)-based cell-based high throughput dose response assay for antagonists of the orexin 1 receptor (OX1R; HCRTR1). [Related pubchem assays (depositor defined):AID434989, AID435008, AID463079, AID485270, AID492963, AID492964, AID492965, AID493232, AID504717, AID504718]. Background: TR-FRET usually uses a lanthanide donor and a delayed reading to cut background.

The target in experiment [12] is T4, Orexin/Hypocretin receptor type 1. Description: Fluorescence-based cell-based high throughput dose response assay for antagonists of the orexin 1 receptor (OX1R; HCRTR1). [Related pubchem assays (depositor defined):AID434989, AID435008, AID463079, AID485270, AID492963, AID492964, AID492965, AID493232, AID504717, AID504718].
In experiment [13] the target is T5, Orexin receptor type 2 (Homo sapiens, UniProt O43614).
T5 sequence (O43614 whole entry): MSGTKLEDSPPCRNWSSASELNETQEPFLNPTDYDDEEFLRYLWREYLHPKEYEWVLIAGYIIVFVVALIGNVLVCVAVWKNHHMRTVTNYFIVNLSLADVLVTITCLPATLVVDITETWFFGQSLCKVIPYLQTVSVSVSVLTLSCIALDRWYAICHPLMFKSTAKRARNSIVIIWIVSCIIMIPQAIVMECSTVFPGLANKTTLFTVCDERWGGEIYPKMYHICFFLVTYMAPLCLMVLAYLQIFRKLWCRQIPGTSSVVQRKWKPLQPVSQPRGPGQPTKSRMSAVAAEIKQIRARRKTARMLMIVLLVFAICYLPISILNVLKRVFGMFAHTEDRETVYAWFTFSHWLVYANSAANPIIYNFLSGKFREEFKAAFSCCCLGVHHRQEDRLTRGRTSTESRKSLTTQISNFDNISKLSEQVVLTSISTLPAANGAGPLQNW
The experiment in a line: Counterscreen assay for antagonists of the orexin 1 receptor (OX1R; HCRTR1): Homogeneous Time Resolved Fluorescence (HTRF)-based cell-based dose response assay for antagonists of the orexin 2 receptor (OX2R; HCRTR2), run by assay provider. Background: Counterscreens check selectivity or assay interference.

Experiment [14] can be described thus: Counterscreen for antagonists of the orexin 1 receptor (OX1R; HCRTR1): Fluorescence-based cell-based high throughput dose response assay to identify antagonists of the parental CHO cell line. [Related pubchem assays (depositor defined):AID434989, AID435008, AID463079, AID485270, AID492963, AID492964, AID492965, AID493232, AID504699, AID504701].
In a further experiment the test system is CHO-K1. The experiment in a line: Counterscreen for antagonists of the orexin 1 receptor (OX1R; HCRTR1): Homogeneous time resolved fluorescence (HTRF)-based cell-based dose response assay to identify antagonists of the parental CHO-K1 cell line. [Related pubchem assays (depositor defined):AID434989, AID435008, AID463079, AID485270, AID492963, AID492964, AID492965, AID493232, AID504699, AID504701]. As to conditions: Cricetulus griseus.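 Further: potency for inhibition of ATP-stimulated IP1 production as antagonists.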

Experiment [15] deals with T5, Orexin receptor type 2. The experiment in a line: Counterscreen assay for antagonists of the orexin 1 receptor (OX1R; HCRTR1): Fluorescence-based cell-based dose response assay for antagonists of the orexin 2 receptor (OX2R; HCRTR2), run by assay provider.

Calls of active or inactive are those of the source.

Chain of Tyrosine-protein phosphatase non-receptor type 11 (Q06124 whole entry): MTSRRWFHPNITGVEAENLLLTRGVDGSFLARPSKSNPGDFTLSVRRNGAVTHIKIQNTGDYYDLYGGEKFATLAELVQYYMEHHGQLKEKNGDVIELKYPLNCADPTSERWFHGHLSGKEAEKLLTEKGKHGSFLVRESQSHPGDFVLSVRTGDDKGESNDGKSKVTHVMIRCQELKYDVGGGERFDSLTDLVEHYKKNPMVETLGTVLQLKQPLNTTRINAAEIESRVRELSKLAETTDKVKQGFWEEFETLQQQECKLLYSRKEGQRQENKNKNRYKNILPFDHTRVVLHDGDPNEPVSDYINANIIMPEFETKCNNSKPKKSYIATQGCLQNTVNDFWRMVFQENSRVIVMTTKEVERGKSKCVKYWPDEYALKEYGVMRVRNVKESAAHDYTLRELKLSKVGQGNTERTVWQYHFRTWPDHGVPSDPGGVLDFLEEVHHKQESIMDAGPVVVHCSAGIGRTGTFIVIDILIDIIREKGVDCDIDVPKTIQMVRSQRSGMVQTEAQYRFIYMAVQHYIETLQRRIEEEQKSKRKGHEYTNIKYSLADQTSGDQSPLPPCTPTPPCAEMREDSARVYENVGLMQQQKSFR
Chain of Dual specificity protein phosphatase 3 (P51452 whole entry, the tested form may be a part): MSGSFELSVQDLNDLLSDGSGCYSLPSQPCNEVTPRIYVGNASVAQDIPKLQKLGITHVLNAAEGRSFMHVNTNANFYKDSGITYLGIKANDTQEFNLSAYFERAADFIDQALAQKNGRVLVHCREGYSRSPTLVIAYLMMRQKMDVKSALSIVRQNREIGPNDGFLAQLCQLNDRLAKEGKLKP

As to `O=c1cc(-c2ccc(O)cc2)oc2c1ccc1ccccc12`, the IC50 at Prothrombin was 62.2 µM (active); in experiment [1] it was 47.7 µM (active); in experiment [2] it was > 100 µM (inactive); in experiment [3] it was 7.87 µM (active); in experiment [4], > 66.6 µM (inactive).

As for `CCCCCn1c(N)c(-c2nc3ccccc3o2)c2c([N+](=O)[O-])nn(C)c(=O)c21`, the IC50 in experiment [5] is > 80 µM (inactive); in experiment [6], 0.738 µM (active); in experiment [7], 0.343 µM (active); in experiment [8] it was 3.06 µM (active).

Consider `Fc1ccccc1N=C(S)NNc1ncc(C(F)(F)F)cc1Cl`, for which the IC50 in experiment [9] was 10 µM (active); in [10], 3.55 µM (active).

For the compound `CCc1c(C)nc(N)nc1N1N=C1SCCOc1ccccc1`, the IC50 in [9] was 9.19 µM (active); in experiment [10] it was 4.47 µM (active).

For `COc1cc(CN2CC(=O)N(c3ccccc3Cl)C2=S)cc(OC)c1OC`, the IC50 is 1.01 µM (active) in experiment [11]; 6.26 µM (active) in experiment [12]; > 50 µM (inactive) at Orexin receptor type 2 [13]; 21.4 µM (inactive) in [14]; > 66.2 µM (inactive) in the experiment with CHO-K1; > 88.8 µM (inactive) at Orexin receptor type 2 [15].
